Experimental data from patent US11457628B2, “Substituted pyrimidine compound and preparation method and use thereof” (SHENYANG SINOCHEM AGROCHEMICALS R&D CO., LTD., priority 2017, dated 2022).

Columns and labels:
cucumber anthrax = assay type: in vivo; settings: dose 400 ppm
green peach aphid = experiment: activity against the green peach aphid, airbrush spray method; assay type: in vivo; settings: 100 mg/L, after 48 hours
wheat powdery mildew = experiment: in vivo protective activity, pot determination, wheat powdery mildew
Tetranychus cinnabarinus = experiment: activity against Tetranychus cinnabarinus, airbrush spray method; settings: 600 mg/L, after 72 hours
corn rust = experiment: in vivo protective activity, pot determination, corn rust
cucumber downy mildew = experiment: in vivo protective activity, pot determination, cucumber downy mildew
rice blast = experiment: microbe, parasite or virus in culture; assay type: cell-based; settings: Pyricularia oryzae, 24 h, read-out: inhibition activity for rice blast

## Cc1ncnc(NCCOc2cc(-c3ccc(Cl)cc3Cl)n(C)n2)c1Cl [Compound 10-21]
Cucumber anthrax
  protective effect for the melon anthrax / cucumber anthrax: 100%

## Cc1nc(C)c(C)c(N(C)Cc2cnn(-c3ccccc3)c2)n1 [CK3]
Green peach aphid
  Lethality to Green Peach Aphid (%): 30%
Cucumber anthrax
  protective effect for the melon anthrax / cucumber anthrax: 0%
Wheat powdery mildew; 400 mg/L
  Protective Activity (%), wheat powdery mildew: 0%
Tetranychus cinnabarinus
  Lethality to Tetranychus Cinnabarinus (%): 56%
Corn rust; 6.25 mg/L
  Protective Activity (%), corn rust: 0%
Corn rust; 25 mg/L
  Protective Activity (%), corn rust: 0%
Corn rust; 100 mg/L
  Protective Activity (%), corn rust: 20%
Corn rust; 400 mg/L
  Protective Activity (%), corn rust: 60%
Cucumber downy mildew; 50 mg/L
  Protective Activity (%), cucumber downy mildew: 0%
Cucumber downy mildew; 100 mg/L
  Protective Activity (%), cucumber downy mildew: 30%
Cucumber downy mildew; 400 mg/L
  Protective Activity (%), cucumber downy mildew: 100%
Rice blast
  inhibition at 2.8 ppm: 0%
  inhibition at 8.3 ppm: 0%
  inhibition at 25 ppm: 0%

## CCc1ncnc(NCc2cnn(-c3ccccc3)c2C)c1Cl [CK1]
Green peach aphid
  Lethality to Green Peach Aphid (%): 0%
Cucumber downy mildew; 25 mg/L
  Protective Activity (%), cucumber downy mildew: 0%
Cucumber downy mildew; 50 mg/L
  Protective Activity (%), cucumber downy mildew: 20%
Cucumber downy mildew; 100 mg/L
  Protective Activity (%), cucumber downy mildew: 95%
Cucumber downy mildew; 400 mg/L
  Protective Activity (%), cucumber downy mildew: 100%
Rice blast
  inhibition at 2.8 ppm: 0%
  inhibition at 8.3 ppm: 0%
  inhibition at 25 ppm: 0%

## Cc1c(OCCNc2ncnc(C(F)F)c2Cl)nn(C)c1-c1ccc(Cl)cc1 [Compound 12-1-19]
Cucumber anthrax
  protective effect for the melon anthrax / cucumber anthrax: 100%
Wheat powdery mildew; dose 6.25 ppm
  protective effect for control of wheat powdery mildew: more than 80%

## Cc1nc(Cl)cc(N(C)Cc2c(C)nn(-c3ccccc3)c2C)n1 [CK5]
Green peach aphid
  Lethality to Green Peach Aphid (%): 22%
Cucumber anthrax
  protective effect for the melon anthrax / cucumber anthrax: 0%
Wheat powdery mildew; 400 mg/L
  Protective Activity (%), wheat powdery mildew: 0%
Tetranychus cinnabarinus
  Lethality to Tetranychus Cinnabarinus (%): 58%
Corn rust; 6.25 mg/L
  Protective Activity (%), corn rust: 20%
Corn rust; 25 mg/L
  Protective Activity (%), corn rust: 60%
Corn rust; 100 mg/L
  Protective Activity (%), corn rust: 70%
Corn rust; 400 mg/L
  Protective Activity (%), corn rust: 98%
Cucumber downy mildew; 400 mg/L
  Protective Activity (%), cucumber downy mildew: 85%
Rice blast
  inhibition at 2.8 ppm: 0%
  inhibition at 8.3 ppm: 0%
  inhibition at 25 ppm: 0%

## Cc1c(OCC(C)Nc2ncnc3scc(Cl)c23)nn(C)c1-c1ccccc1 (centres unmarked) [Compound 21-4-1]
Cucumber anthrax
  protective effect for the melon anthrax / cucumber anthrax: 100%

## Cc1cc(N(C)Cc2cnn(-c3ccccc3)c2)nc(C(C)C)n1 [CK4]
Green peach aphid
  Lethality to Green Peach Aphid (%): 0%
Cucumber anthrax
  protective effect for the melon anthrax / cucumber anthrax: 0%
Wheat powdery mildew; 400 mg/L
  Protective Activity (%), wheat powdery mildew: 0%
Tetranychus cinnabarinus
  Lethality to Tetranychus Cinnabarinus (%): 59%
Corn rust; 6.25 mg/L
  Protective Activity (%), corn rust: 0%
Corn rust; 25 mg/L
  Protective Activity (%), corn rust: 0%
Corn rust; 100 mg/L
  Protective Activity (%), corn rust: 0%
Corn rust; 400 mg/L
  Protective Activity (%), corn rust: 40%
Cucumber downy mildew; 50 mg/L
  Protective Activity (%), cucumber downy mildew: 0%
Cucumber downy mildew; 100 mg/L
  Protective Activity (%), cucumber downy mildew: 40%
Cucumber downy mildew; 400 mg/L
  Protective Activity (%), cucumber downy mildew: 100%
Rice blast
  inhibition at 2.8 ppm: 0%
  inhibition at 8.3 ppm: 0%
  inhibition at 25 ppm: 0%

## CCc1ncnc(NCCOc2nn(C)c(-c3ccc(Cl)cc3)c2C)c1Cl [Compound 11-1-19]
Cucumber anthrax
  protective effect for the melon anthrax / cucumber anthrax: 100%

## Cc1c(OCCCNc2ncnc(C(F)F)c2Cl)nn(C)c1-c1ccccc1 [Compound 12-3-1]
Rice blast
  inhibition at 2.8 ppm: > 80%
  inhibition at 8.3 ppm: > 80%
  inhibition at 25 ppm: > 80%

## Cc1c(OCC(C)Nc2ncnc3ccccc23)nn(C)c1-c1ccccc1 (centres unmarked) [Compound 19-4-1]
Cucumber anthrax
  protective effect for the melon anthrax / cucumber anthrax: 100%

## Cn1nc(OCCNc2ncnc3ccccc23)cc1-c1ccc(Br)cc1 [Compound 19-34]
Rice blast
  inhibition at 25 ppm: > 80%

## Cc1c(OCCNc2ncnc3scc(Cl)c23)nn(C)c1-c1ccc(F)cc1 [Compound 21-1-4]
Cucumber anthrax
  protective effect for the melon anthrax / cucumber anthrax: 100%

## Cn1nc(OCCNc2ncnc3scc(Cl)c23)cc1-c1ccc(Cl)cc1Cl [Compound 21-21]
Cucumber anthrax
  protective effect for the melon anthrax / cucumber anthrax: 100%

## CCc1ncnc(OCCOc2nn(C)c(-c3ccccc3)c2C)c1Cl [Compound 26-1-1]
Cucumber anthrax
  protective effect for the melon anthrax / cucumber anthrax: 100%

## Cc1c(OCCNc2ncnc(C(F)F)c2Cl)nn(C)c1-c1ccccc1 [Compound 12-1-1]
Cucumber anthrax
  protective effect for the melon anthrax / cucumber anthrax: 100%

## CCc1ncnc(NCc2cnn(-c3ccccc3)c2C(F)(F)F)c1Cl [CK2]
Wheat powdery mildew; 6.25 mg/L
  Protective Activity (%), wheat powdery mildew: 0%
Wheat powdery mildew; 25 mg/L
  Protective Activity (%), wheat powdery mildew: 20%
Wheat powdery mildew; 100 mg/L
  Protective Activity (%), wheat powdery mildew: 50%
Wheat powdery mildew; 400 mg/L
  Protective Activity (%), wheat powdery mildew: 100%
Cucumber downy mildew; 25 mg/L
  Protective Activity (%), cucumber downy mildew: 0%
Cucumber downy mildew; 50 mg/L
  Protective Activity (%), cucumber downy mildew: 20%
Cucumber downy mildew; 100 mg/L
  Protective Activity (%), cucumber downy mildew: 75%
Cucumber downy mildew; 400 mg/L
  Protective Activity (%), cucumber downy mildew: 100%
Rice blast
  inhibition at 2.8 ppm: 0%
  inhibition at 8.3 ppm: 0%
  inhibition at 25 ppm: 0%

## Cc1c(OCCNc2ncnc3ccccc23)nn(C)c1-c1ccc(F)cc1 [Compound 19-1-4]
Cucumber anthrax
  protective effect for the melon anthrax / cucumber anthrax: 100%
